Test results published in patent publication US12063929B2, “3′-alkynyl abscisic acid derivatives as ABA antagonists” (University of Saskatchewan, priority 2018, dated 2024).

Key:
[1] = tested on: Lentil (CDC Maxim); assay: Lentil (CDC Maxim) seed germination assay; format: in vivo
Protocol: 40 seeds were counted for each 100×15 mm petri dishes. Each petri dish contained two filter papers and 10 mL of test solutions. Then, they were wrapped with aluminium foil to cut off light. Wrapped plates were kept on lab bench at room temperature. Germinated seeds were counted everyday until one treatment reaches 100% germination (two days). Only light exposure was during plate counting. […]
All seeds from this experiment have been rinsed first with tap water and then with dH2O, frozen in liquid nitrogen and stored at −80° C. freezer.

[2] = tested on: Soybean (AAC Edward; 2018); assay: Soybean germination assay; format: in vivo
Protocol: For each treatment 6 replicates of 10 seeds were plated into petri dishes lined with two filter papers and 10 mL of test solution. The covered dishes were stored at room temperature in the dark. Germinated seeds were counted over 24 hours. The following dosages were used when studying the effect of exemplary compounds of the application on soybean germination: control 1% DMSO. 10 μM ABA, 10 μM exemplary compound 1019, 100 um exemplary compound 1019, 10 μM exemplary compound 1019 plus 10 μM ABA and 100 uM exemplary compound 1019 plus 10 μM ABA.

[3] = tested on: rice; assay: Rice radical elongation assay; format: in vivo; conditions: 10 μM 1019 alone, 4.5 days post treatment (FIG. 11A)
Protocol: (§1) Seeds were surface sterilized by incubation in 10% bleach for 20 min with shaking, then rinsed four times with sterile water. Four ml of test solutions were pipetted into petri dishes (100×15 mm) that contain a single filter paper. Fifteen seeds were added to each dish. For rice, barely, and wheat, the experiment involved five treatments (5 μM ABA; 5 μM ABA+10 μM 1019; 10 μM 1019; water control; water+EtOH+NaOH control), with three replications per treatment. For sorghum, treatments were 10 μM ABA; 10 μM ABA+20 μM 1019; 20 μM 1019; water control; water+EtOH+NaOH control. Dishes were sealed with Parafilm, and incubated in the dark at room temperature. Radical length was measured daily post emergence using ImageJ software; shown are 3 days post treatment for barley, wheat and sorghum and 4.5 days post treatment for rice.

[4] = tested on: barley; assay: Barley radical elongation assay; format: in vivo; conditions: 10 μM 1019 alone, 3.0 days post treatment (FIG. 11B)
Protocol: as §1

[5] = tested on: wheat; assay: Wheat radical elongation assay; format: in vivo; conditions: 10 μM 1019 alone, 3.0 days post treatment (FIG. 11C)
Protocol: as §1

[6] = tested on: wild and RIL lentil genotypes; assay: Seed germination in wild and RIL populations of lentil genotypes; format: in vivo, lentil (L. orientalis, L. nigricans and others)
Source text: Fifty four lentil genotypes were selected for the experiment based on the existing data on the number of days it takes them to emerge and days to flowering. The seeds of each genotype were scarified before sowing and subjected to 3 treatments. VWR 415 9 cm filter papers were placed inside VWR 100 mm plastic petri dishes. Each petri dish was labeled on both the top and the bottom. Ten seed from each line was place in a labelled petri dish. Each lentil or faba bean genotype was replicated 3 times and subjected to 3 treatments (total number of experimental petri dishes=531). Thus: • 1. ABA exemplary compound solution [10 μM exemplary ABA analog compound 1019 in 1% DMSO, 99% H2O (LL10.1014.1) NaSaH (SL-1-16-1-53)] • 2. No exemplary ABA analogue solution (1% DMSO, 99% H2O) • 3. Distilled water—control
Seven milliliters of either exemplary ABA analogue solution, solution with no exemplary ABA analogue or distill water (control) was added into the corresponding labelled petri dishes containing the 10 scarified lentil seeds. For faba, bean, 10 ml because of their large seed size. The petri dishes were placed in a dark cupboard. Two digital temperature and humidity loggers (Tinytag) were placed inside the cupboards to monitor environmental conditions.
Germination was considered for a seed when a tiny radicle at least 5 mm or greater had emerged from the seed. The number of seeds that germinated was counted and recorded at 48 and 96 hours; and at 7 days. Some of the genotypes of interest were photographed (AF-S Micro NIKKOR 60 mm 1:2.8G camera) for comparison purpose. However, an excel sheet showing all results is available. At 48 hours, a total of 22 genotypes and their replicates were selected from the petri dishes treated with exemplary compound and distilled water were transplanted into pots (for faba bean) and trays (for lentils) in order to assess the length of time they took to flower while the rest of the petri dishes were kept till the end of the experiment that lasted a week.
The average temperature in the cupboards was 22.5° C. (±0.3) while the relative humidity ranged from 52.4 to 80.7 percent for the duration of the experiment. Studies carried out by Linda Gorim and Devini De. Silva, University of Saskatchewan

[7] = tested on: Botrytis cinerea; assay: Pathogenicity test on detached Arabidopsis thaliana leaves; format: in vivo

CC1=C(C#Cc2ccccc2)C(=O)CC(C)(C)[C@@]1(O)/C=C/C(C)=C\C(=O)O [Compound 1019, (2Z,4E)-5-((S)-1-Hydroxy-2,6,6-trimethyl-4-oxo-3-(phenylethynyl)cyclohex-2-en-1-yl)-3-methylpenta-2,4-dienoic acid]
lentil seed germination, antagonism of ABA ([1]; 10 μM ABA plus 10 μM compound (FIG. 6C)): strongest antagonist
lentil seed germination ([1]; 10 μM compound and 10 μM compound plus 10 μM ABA (FIG. 5)): promoted
lentil seed germination ([1]; 100 μM compound plus 10 μM ABA (FIG. 6B)): overcame the effect
soybean seed germination ([2]; 10 and 100 μM compound in the presence of 10 μM ABA): overcame the inhibition
soybean seed germination ([2]; compound alone at 10 or 100 μM): did not affect
radical length (Least Square mean); radical elongation [3]: 1.036
radical length (Least Square mean); radical elongation [4]: 2.83
radical length (Least Square mean); radical elongation [5]: 2.386
germination ([6]; L. nigricans IG-72551 seeds, at 2 days, 10 μM compound): 100%
germination ([6]; L. orientalis IG72770, day 2, 10 μM compound): 40%
germination ([6]; L. orientalis IG72770, day 3, 10 μM compound): 75%
germination ([6]; L. orientalis IG72770, day 4, 10 μM compound): 100%
germination uniformity between replicates ([6]; all genotypes that responded, 10 μM compound): eliminated the variable germination rates
days to flowering ([6]; lentil, transplanted at 48 hours, 10 μM compound): nor did it significantly affect
number of lentil genotypes that responded positively (improved germination rate) ([6]; of 54 lentil genotypes screened, over 4 days, 10 μM compound): 18
disease lesions ([7]; 100 μM spray, 24 hours post inoculation (FIG. 14)): smaller lesions
disease development caused by B. cinerea ([7]; 100 μM spray, preliminary results): partially inhibits
symptom development ([7]; plants sprayed with 100 μM, versus mock control): slower
